Laboratory results as given in patent US4966900A, “Cephalosporin β-lactam compound and medicinal composition” (priority 1986, dated 1990).
≈ marks a conversion by molar mass, not a printed value. Where a name gives a salt, the structure may show the parent alone.

Legend:
Assay in all cases: MIC
[1] = test system: C. freundii 1R524; conditions: Citrobacter freundii, 1R524
[2] = test system: C. freundii GN7391; conditions: Citrobacter freundii, GN7391, C. freundii GN7391
[3] = test system: E. coli ML4707; conditions: Escherichia coli, ML4707, E. coli ML4707; Table 5
[4] = test system: E. cloacae 5D52-2; conditions: Enterobacter cloacae, 5D522
[5] = test system: P. vulgaris GN7919; conditions: Proteus vulgaris, GN7919
[6] = test system: S. marcescens GN10857; conditions: Serratia marcescens, GN10857, S. marcescens GN10857; Table 5
[7] = test system: E. colacae GN7471; conditions: Table 5
[8] = test system: S. aureus Smith; conditions: Staphylococcus aureus, Table 5
[9] = test system: K. pneumoniae 4at521; conditions: Klebsiella pneumoniae, 4AT521
[10] = test system: P. cepacia OF189; conditions: Burkholderia cepacia, OF189, P. cepacia OF189; Table 5
[11] = test system: P. aeruginosa 4au542; conditions: Pseudomonas aeruginosa, 4AU542, P. aeruginosa 4au542; Table 5
[12] = test system: C. freundii 1U589; conditions: Citrobacter freundii, 1U589
[13] = test system: E. cloacae 5D63-2; conditions: Enterobacter cloacae, 5D632
[14] = test system: C. freundii 1R526; conditions: Citrobacter freundii, 1R526
[15] = test system: E. cloacae 908RN; conditions: Enterobacter cloacae
[16] = test system: C. freundii 1R523; conditions: Citrobacter freundii, 1R523
[17] = test system: P. aeruginosa GN10362; conditions: Pseudomonas aeruginosa, GN10362
[18] = test system: P. maltophilia OF247; conditions: Stenotrophomonas maltophilia, Table 5
[19] = test system: E. cloacae 1V25; conditions: Enterobacter cloacae
[20] = test system: C. freundii 1U692; conditions: Citrobacter freundii, 1U692
[21] = test system: P. aeruginosa 5D58-1; conditions: Pseudomonas aeruginosa, 5D581, P. aeruginosa 5D58-1; Table 5
[22] = test system: E. coli GN5482; conditions: Escherichia coli, GN5482, E. coli GN5482; Table 5
[23] = test system: C. freundii 1R527; conditions: Citrobacter freundii, 1R527
[24] = test system: C. freundii 5D60-1; conditions: Citrobacter freundii, 5D601
[25] = test system: E. cloacae 1Y247; assay type: cell-based; conditions: Enterobacter cloacae, Table 6, read-out: MIC
Experimental: (§1) The minimum inhibition concentrations (MIC) of the compounds obtained in the respective examples described above were measured according to the standard method of Japanese Chemotherapy Association.

[26] = test system: S. aureus IAA498; assay type: cell-based; conditions: Staphylococcus aureus, Table 5
Experimental: as §1

MIC [1] [µg/mL] | MIC ([2]; Table 5) [µg/mL] | MIC ([2]; Table 6) [µg/mL] | MIC [3] [µg/mL] | MIC [4] [µg/mL] | MIC [5] [µg/mL] | MIC [6] [µg/mL] | MIC [7] [µg/mL] | MIC [8] [µg/mL] | MIC [9] [µg/mL] | MIC [10] [µg/mL] | MIC [11] [µg/mL] | MIC [12] [µg/mL] | MIC [13] [µg/mL] | MIC [14] [µg/mL] | MIC ([15]; E. cloacae 908RN, Table 6) [µg/mL] | MIC ([15]; E. colacae 908RN, Table 5) [µg/mL] | MIC [16] [µg/mL] | MIC [17] [µg/mL] | MIC [18] [µg/mL] | SMILES | further results
0.025 | 0.39 | 0.78 | < 0.006 | 0.1 | 0.2 | 0.05 | 0.39 | 25 | < 0.006 | < 0.006 | 0.2 | 0.05 | 0.1 | 0.025 | 0.2 | 0.2 | 0.05 | 0.05 | 0.1 | CC(C)(ON=C(C(=O)NC1C(=O)N2C(C(=O)O)=C(CSc3c4c(nc5nc(C(=O)O)nn35)CCC4)CSC12)c1csc(N)n1)C(=O)NNC(=O)c1ccc(O)c(O)c1 (stereo not drawn) [Example 33, 7-{2-[2-amino-1,3-thiazol-4-yl]-2-[1-(3-(3,4-dihydroxybenzoyl)carbazoyl)-1-methylethoxyimino]acetamide}-3-[(2-carboxy-6,7-dihydro-5H-cyclopenta[f]-s-triazolo[1,5-a]pyrimidin-8-yl)thiomethyl]-3-cephem-4-carboxylic acid.hydrochloride] | MIC [19]: 1.56 µg/mL; MIC [20]: 0.05 µg/mL; MIC [21]: 0.2 µg/mL; MIC [22]: < 0.006 µg/mL; MIC [23]: 0.025 µg/mL; MIC [24]: 0.2 µg/mL; MIC [25]: 1.56 µg/mL; MIC [26]: 25 µg/mL
0.1 (≈ 0.121 µM) | 1.56 (≈ 1.88 µM) | 3.13 (≈ 3.78 µM) | 0.012 (≈ 0.0145 µM) | 0.1 (≈ 0.121 µM) | 0.78 (≈ 0.942 µM) | 0.2 (≈ 0.242 µM) | 0.78 (≈ 0.942 µM) | 25 (≈ 30.2 µM) | < 0.006 | < 0.006 | 0.2 (≈ 0.242 µM) | 0.2 (≈ 0.242 µM) | 0.2 (≈ 0.242 µM) | 0.1 (≈ 0.121 µM) | 0.78 (≈ 0.942 µM) | 0.78 (≈ 0.942 µM) | 0.1 (≈ 0.121 µM) | 0.05 (≈ 0.0604 µM) | 0.39 (≈ 0.471 µM) | Cc1nc2nc(C(=O)O)cc(SCC3=C(C(=O)O)N4C(=O)C(NC(=O)C(=NOC(C)(C)C(=O)NNC(=O)c5ccc(O)c(O)c5)c5csc(N)n5)C4SC3)n2n1 (stereo not drawn) [Example 37] | MIC [19]: 6.25 µg/mL (≈ 7.55 µM); MIC [20]: 0.2 µg/mL (≈ 0.242 µM); MIC [21]: 0.78 µg/mL (≈ 0.942 µM); MIC [22]: 0.012 µg/mL (≈ 0.0145 µM); MIC [23]: 0.1 µg/mL (≈ 0.121 µM); MIC [24]: 0.39 µg/mL (≈ 0.471 µM); MIC [25]: 3.13 µg/mL (≈ 3.78 µM); MIC [26]: 25 µg/mL (≈ 30.2 µM)
0.2 (≈ 0.247 µM) | 3.13 (≈ 3.86 µM) | 6.25 (≈ 7.72 µM) | 0.012 (≈ 0.0148 µM) | 0.2 (≈ 0.247 µM) | 0.78 (≈ 0.963 µM) | 0.39 (≈ 0.482 µM) | 3.13 (≈ 3.86 µM) | 6.25 (≈ 7.72 µM) | 0.012 (≈ 0.0148 µM) | 0.012 (≈ 0.0148 µM) | 0.39 (≈ 0.482 µM) | 0.39 (≈ 0.482 µM) | 0.39 (≈ 0.482 µM) | 0.2 (≈ 0.247 µM) | 12.5 (≈ 15.4 µM) | 3.13 (≈ 3.86 µM) | 0.2 (≈ 0.247 µM) | 0.2 (≈ 0.247 µM) | 0.2 (≈ 0.247 µM) | CC(C)(ON=C(C(=O)NC1C(=O)N2C(C(=O)O)=C(CSc3c4c(nc5ncnn35)CCC4)CSC12)c1csc(N)n1)C(=O)NNC(=O)c1ccc(O)c(O)c1 (stereo not drawn) [Example 36] | MIC [19]: 12.5 µg/mL (≈ 15.4 µM); MIC [20]: 0.39 µg/mL (≈ 0.482 µM); MIC [21]: 0.78 µg/mL (≈ 0.963 µM); MIC [22]: 0.012 µg/mL (≈ 0.0148 µM); MIC [23]: 0.2 µg/mL (≈ 0.247 µM); MIC [24]: 1.56 µg/mL (≈ 1.93 µM); MIC [25]: 12.5 µg/mL (≈ 15.4 µM); MIC [26]: 12.5 µg/mL (≈ 15.4 µM)
